The subject of experiment [1] is HeLa cells. The experiment in a line: Mitotic spindle immunofluorescence (tubulin) in transfected HeLa cells. Particulars: tubulin labeling. In kind it is cell-based. How it is done: HeLa cells transfected with wild type survivin (WT) or survivin(T34A) (T34A), were fixed in microtubule-stabilizing buffer (Li et al., 1998), and labeled with mAb 20C6 to […] -tubulin followed by FITC-conjugated goat anti-mouse IgG. Images were analyzed by confocal microscopy as described in FIG. 2C.
(§1) Transfection experiments. For transient transfection, HeLa cells in C-6 tissue culture plates (Costar, Cambridge, Mass.) at ˜60-70% confluency, were incubated in 1 ml of serum-free OptiMEM medium (Life Technologies, Gaithersburg, Md.) for 20 min, and transfected with 2.5 μg of the various plasmid cDNAs plus 9 μl Lipofectamine (Life Technologies). After a 5 h incubation at 37° C., the mixture was aspirated and substituted with complete growth medium for 48-72 h. To generate stable YUSAC-2 transfectants, a survivin(T34A) cDNA was inserted into the HindIII-SpeI sites of the pTet-splice vector (Dr. D. Schatz, Yale University School of Medicine), downstream of the regulatory sequences of the Tet-resistance operon (TetO). YUSAC-2 cells were transfected with 0.8 μg pTet-T34A, 0.8 μg of the transactivation/selection plasmid ptTA-Neo and 5 μl Lipofectamine in 1 ml of OptiMem. […] Gated GFP-expressing cells were analyzed for DNA content by flow cytometry on a FACSort (Becton Dickinson, San Jose, Calif.) using a Cell Quest software. […]

Experiment [2] deals with T1, Cdk2-cyclin E (Homo sapiens, UniProt P24941).
T1 construct: host or cells: baculovirus expression system
The experiment in a line: In vitro kinase assay with Cdk2-cyclin E. Type of experiment: biochemical. As to conditions: recombinant protein as substrate, control experiment, autoradiography. The procedure:
FIG. 1B. In vitro kinase assay. Wild type (WT) survivin, survivin(T34A) (T34A), or control (H1) were incubated with baculovirus-expressed p34^cdc2-cyclin B1 or cdk2-cyclin E in kinase buffer plus 10 μCi γ-^32P-ATP for 30 min at 30° C. Samples were separated by SDS gel electrophoresis and radioactive bands were visualized by autoradiography. Equal protein loading was confirmed by Coomassie blue staining of the gel.
as §1, with “(TetO).” for “(TetO). YUSAC-2 cells were transfected with 0.8 μg pTet-T34A, 0.8 μg of the transactivation/selection plasmid ptTA-Neo and 5 μl Lipofectamine in 1 ml of OptiMem.”

Regarding “survivin(T34A): dominant-negative, non-phosphorylatable survivin mutant with Thr34→Ala substitution, expressed from transfected cDNA (also HA- or GFP-tagged)”, in experiment [1], the mitotic spindle morphology entry is given as “profound dysregulation of mitotic transitions”. Moreover, the “phosphorylation by Cdk2-cyclin E” value in experiment [2] is recorded as “did not phosphorylate”.

The values are drawn from US7553821B2, “Methods for selectively modulating survivin apoptosis pathways” (Yale University, priority 2000, dated 2009).
